“Also recorded” adds a separate entry of the source.
Test: Peptide partition from solution to membrane followed by tryptophan intrinsic fluorescence titration
Format: physicochemical
Conditions: for ability to interact with / partition into membranes: tryptophan fluorescence and CD; for ΔG (free energy of membrane partition): ΔG=−RTln(KX)
Experimental: Small unilamellar vesicles (SUVs) were prepared at a lipid concentration of 10 mM from POPC and POPG at a molar ratio of 10:0 or 8:2 or from DOPC, DOPE, DOPG, Chol at molar ratio 10:0:0:0, 8:0:2:0, 7:3:0:0, 7:0:0:3, 6:3:0:1, and 4:3:2:1 in buffer A, as previously described. Briefly, SUVs were prepared by reverse-phase evaporation and passed through polycarbonate filters 0.8-, 0.4-, and 0.2-μm (Merck Millipore, Darmstadt, Germany). Vesicles were sonicated using a sonicator tip and their hydrodynamic diameters, dispersity, and charge were checked by dynamic light scattering (DLS) and electrophoretic mobility using a NanoZS instrument (Malvern Instruments, Orsay, France).
Fluorescence titrations were performed with a FP-8200 Jasco spectrofluorimeter, equipped with a Peltier-thermostated ETC-272T (25 °C). A bandwidth of 5 nm was used for both excitation and emission beams. Fluorescence experiments were carried out in a 109.004F-QS cuvette (Hellma, France) with constant stirring. Fluorescence emission was recorded between 300 and 400 nm at a scan rate of 200 nm/min, with an excitation wavelength of 280 nm. Fluorescence emission spectra were corrected for SUV light scattering. Maximum emission wavelength (λmax) and fluorescence intensity ratio at 330 nm over 370 nm (P454-derived peptides) or at 340 nm over 380 nm (CyaA-derived peptides) were used to report peptide-membrane interaction and to measure the partition coefficient KX.
The partition coefficient KX is defined as the ratio of protein concentrations in the lipid and in buffer phases. It is expressed as follows:
KX=PL/PW·[W]/[L] , providing PW/PL=[W]/KX[L] , where PW is the concentration of peptide in solution, PL the concentration of peptides partitioning into lipid membrane, [W] represents the concentration of water, and [L] the lipid concentration.
The fraction of peptide partitioned into the membrane phase, fPL, is equal to: fPL=PL/PT=PL/PL+PW=1/(PW/PL)+1=1/([W]/KX[L])+1
The partition coefficient is related to the apparent dissociation constant as follows: KX * KD = [W] with KD * PL = PW * [L]. The equation fPL is fitted to the experimental data using the KaleidaGraph software, providing KX. The free energy corresponding to the transfer of the peptide from the aqueous phase to the lipid phase is given by the equation ΔG=−RTln(KX) , where ΔG is the free energy in kcal/mol, R the gas constant (R = 1.98 × 10^−3 kcal/mol/K), and T the temperature in Kelvin.

[1] = SUVs DOPC/DOPE/DOPG/Chol 4:3:2:1, Trp fluorescence titration (exc. 280 nm, ratio 340/380 nm), 20 mM HEPES, 150 mM NaCl, pH 7.4, 25 °C
[2] = SUVs DOPC/DOPE/DOPG/Chol 4:3:2:1
[3] = SUVs DOPC/DOPE/DOPG/Chol 4:3:2:1, pH 7.4, 25 °C
[4] = SUVs DOPC/DOPG 8:2, Trp fluorescence titration (exc. 280 nm, ratio 330/370 nm), 20 mM HEPES, 150 mM NaCl, pH 7.4, 25 °C, S.D. within ±5%
[5] = SUVs DOPC/DOPG 8:2, pH 7.4, 25 °C, S.D. ±0.1 kcal/mol
[6] = SUVs DOPC, Trp fluorescence titration (exc. 280 nm, ratio 330/370 nm), 20 mM HEPES, 150 mM NaCl, pH 7.4, 25 °C, S.D. within ±5%
[7] = SUVs DOPC, pH 7.4, 25 °C, S.D. ±0.1 kcal/mol
[8] = SUVs POPC/POPG 8:2, Trp fluorescence titration (exc. 280 nm, ratio 330/370 nm), 20 mM HEPES, 150 mM NaCl, pH 7.4, 25 °C, S.D. within ±5%
[9] = SUVs POPC/POPG 8:2, pH 7.4, 25 °C, S.D. ±0.1 kcal/mol
[10] = SUVs POPC, Trp fluorescence titration (exc. 280 nm, ratio 330/370 nm), 20 mM HEPES, 150 mM NaCl, pH 7.4, 25 °C, S.D. within ±5%
[11] = SUVs POPC, pH 7.4, 25 °C, S.D. ±0.1 kcal/mol

| Compound | partition coefficient KX [1] | ability to interact with / partition into membranes [2] | ΔG (free energy of membrane partition) [3] [kcal/mol] | membrane partition on addition of both POPE and cholesterol to POPC (POPC with POPE and cholesterol, data not shown) | partition coefficient KX (SUVs DOPC/Chol 7:3, Trp fluorescence titration, pH 7.4, 25 °C, S.D. within ±5%) | ΔG (free energy of membrane partition) (SUVs DOPC/Chol 7:3, pH 7.4, 25 °C) [kcal/mol] | partition coefficient KX (SUVs DOPC/DOPE 7:3, Trp fluorescence titration, pH 7.4, 25 °C, S.D. within ±5%) | ΔG (free energy of membrane partition) (SUVs DOPC/DOPE 7:3, pH 7.4, 25 °C) [kcal/mol] | partition coefficient KX (SUVs DOPC/DOPE/Chol 6:3:1, Trp fluorescence titration, pH 7.4, 25 °C, S.D. within ±5%) | ΔG (free energy of membrane partition) (SUVs DOPC/DOPE/Chol 6:3:1, pH 7.4, 25 °C) [kcal/mol] | partition coefficient KX [4] | ΔG (free energy of membrane partition) [5] [kcal/mol] | partition coefficient KX [6] | ΔG (free energy of membrane partition) [7] [kcal/mol] | partition coefficient KX [8] | ΔG (free energy of membrane partition) [9] [kcal/mol] | partition coefficient KX [10] | ΔG (free energy of membrane partition) [11] [kcal/mol] | ΔΔG, net contribution of arginine residues to partition compared to the lysine residues of R12K (native P454 vs R12K, all membrane lipid compositions tested) [kcal/mol] |
| --- | --- | --- | --- | --- | --- | --- | --- | --- | --- | --- | --- | --- | --- | --- | --- | --- | --- | --- | --- |
| CC[C@H](C)[C@H](NC(=O)[C@H](CCCCN)NC(=O)[C@H](Cc1c[nH]c2ccccc12)NC(=O)[C@H](CC(C)C)NC(=O)[C@H](CC(C)C)NC(=O)[C@H](CC(=O)O)NC(=O)[C@@H](NC(=O)[C@H](CCCNC(=N)N)NC(=O)[C@H](CCC(=O)O)NC(=O)[C@H](CCCNC(=N)N)NC(=O)[C@H](CC(=O)O)NC(=O)[C@H](CC(C)C)NC(C)=O)[C@@H](C)CC)C(=O)N[C@@H](C)C(=O)N[C@@H](CCCNC(=N)N)C(=O)N[C@@H](C)C(=O)NCC(=O)N[C@@H](C)C(=O)N[C@@H](CCCNC(=N)N)C(=O)N[C@@H](CO)C(=O)N[C@@H](C)C(=O)N[C@H](C(=O)NCC(N)=O)C(C)C [Peptide P233] | 60 000 | able to interact with membranes | -6.5 | – | – | – | – | – | – | – | – | – | – | – | – | – | – | – | – |
| CC[C@H](C)[C@H](NC(=O)[C@H](C)NC(=O)[C@H](Cc1c[nH]cn1)NC(=O)[C@@H](NC(=O)[C@H](CC(C)C)NC(=O)[C@H](CCCNC(=N)N)NC(=O)[C@H](CCC(N)=O)NC(=O)[C@H](C)NC(=O)[C@H](C)NC(=O)[C@H](C)NC(=O)[C@@H](NC(=O)[C@H](C)NC(=O)[C@H](CCC(N)=O)NC(=O)[C@H](C)NC(=O)CNC(=O)[C@H](CCC(N)=O)NC(=O)[C@H](CC(C)C)NC(=O)[C@H](C)NC(=O)[C@H](CCCNC(=N)N)NC(=O)[C@H](CCC(N)=O)NC(=O)CNC(=O)[C@H](Cc1c[nH]c2ccccc12)NC(=O)[C@H](Cc1c[nH]cn1)NC(=O)[C@H](C)NC(=O)[C@H](CO)NC(=O)[C@H](C)NC(C)=O)C(C)C)C(C)C)C(=O)N[C@@H](C)C(=O)N[C@@H](CC(C)C)C(=O)N[C@@H](CCSC)C(=O)N[C@H](C(=O)N[C@@H](CCC(N)=O)C(N)=O)[C@@H](C)O [Peptide P454] | 300 000 | able to interact with membranes | -7.4 | totally abolishes the partition | 60 000 | -6.5 | 80 000 | -6.7 | 40 000 | -6.3 | 1 200 000 | -8.3 | 505 000 | -7.8 | 790 000 | -8 | 150 000 | -7 | ~0.5 ± 0.2 |
| Ac-APEVIARADNDVNSSLAHGW-NH2 [Peptide P89] | – | no detectable change of tryptophan fluorescence or CD signature; also recorded: do not | – | – | – | – | – | – | – | – | – | – | – | – | – | – | – | – | – |
| Ac-ASAHWGQAALQGAQAVAAAQALVHAIALMTQ-NH2 [P454 R12A] | – | – | – | – | – | – | – | – | – | – | 795 000 | -8 | 610 000 | -7.9 | 275 000 | -7.4 | 195 000 | -7.2 | – |
| Ac-ASAHWGQEALQGAQAVAAAQELVHAIALMTQ-NH2 [P454 R12E] | – | – | – | – | – | – | – | – | – | – | 70 000 | -6.6 | 85 000 | -6.7 | 30 000 | -6.1 | 7 000 | -5.2 | – |
| Ac-ASAHWGQKALQGAQAVAAAQKLVHAIALMTQ-NH2 [P454 R12K] | – | – | – | – | – | – | – | – | – | – | 750 000 | -8 | 265 000 | -7.4 | 215 000 | -7.3 | 60 000 | -6.5 | – |
| Ac-ASAHWGQQALQGAQAVAAAQQLVHAIALMTQ-NH2 [P454 R12Q] | – | – | – | – | – | – | – | – | – | – | 310 000 | -7.5 | 195 000 | -7.2 | 70 000 | -6.6 | 35 000 | -6.2 | – |
| Ac-ASAHWGQQALQGAQAVAAAQRLVHAIALMTQ-NH2 [P454 R1Q] | – | – | – | – | – | – | – | – | – | – | 670 000 | -7.9 | 340 000 | -7.5 | 190 000 | -7.2 | 75 000 | -6.6 | – |
| Ac-ASAHWGQRALQGAQAVAAAQQLVHAIALMTQ-NH2 [P454 R2Q] | – | – | – | – | – | – | – | – | – | – | 655 000 | -7.9 | 260 000 | -7.4 | 150 000 | -7 | 90 000 | -6.7 | – |
| Ac-AYFEKNLQARHEQLANSDGLRKMLADLQAGWNASS-NH2 [Peptide P737] | 20 000 | able to interact with membranes | -5.8 | – | – | – | – | – | – | – | – | – | – | – | – | – | – | – | – |
| Ac-EASSAVAETVSGFFRGW-NH2 [Peptide P509] | 80 000 | able to interact with membranes | -6.7 | – | – | – | – | – | – | – | – | – | – | – | – | – | – | – | – |
